Laboratory results published in US20060188938A1, “Compounds for inhibiting beta-amyloid production and methods of identifying the compounds” (priority 2005, published 2006).

Assays:
Tg APPsw mice = Tg APPsw mice given ibuprofen; cited from earlier work
[1] = system: β-amyloid production by 7W WT APP751 CHO cells; experiment: Screening of dihydropyridine compounds of Table 2, Aβ1-40 and Aβ1-42 (Example 5); type: cell-based, Chinese hamster; settings: for concentration of Aβ1-40 compared to control: 3 and 10 μM, 24 hours (FIG. 24); for concentration of Aβ1-40 or Aβ1-42 compared to control: 3, 10, 30 and 100 μM, 24 hours (FIGS. 22A, 22B, 23A, 23B)
Description: (§1) The 7W WT APP751 CHO cells were plated in 24-well cell culture plates in quadruplicate, containing 1 ml of culture medium, and treated with various calcium channel blocker compounds for 4 hours, 24 hours or 48 hours at 37° C. and 5% CO2. All test compounds were diluted in dimethyl sulfoxide (DMSO) before being added to the cultured confluent 7W WT APP751 CHO cells. The culture medium was collected and diluted 5-fold for the 4 hours assay and 50-fold for the 24 hour assay before being assayed by ELISAs for Aβ1-40 and Aβ1-42, respectively. Concentrations of Aβ1-40 and Aβ1-42, expressed in pg/ml, were determined using commercially available ELISAs (Biosource, CA) in a colorimetric assay using labeled antibodies detected spectrophotometrically.
The screening of dihydropyridine compounds was conducted according to the procedure described in Example 1. Each compound was added to confluent cells to a final concentration of 3, 10, 30 or 100 μM and tested. Each of these compounds was added to confluent cells to a final concentration of 3 μM (noted as “C” in FIG. 24) or 10 μM (noted as “B” in FIG. 24).

[2] = system: β-amyloid production by 7W WT APP751 CHO cells; experiment: Measurement of Aβ1-40 and Aβ1-42 by ELISA in culture medium (Example 1, calcium channel blockers); type: cell-based, Chinese hamster
Description: Chinese hamster ovary (CHO) cells, stably transfected with human APP751 (7W WT APP751 CHO cells) were used. See, e.g., Koo and Squazzo, J. Biol. Chem., Vol. 269, Issue 26, 17386-17389, July, 1994. The cells were maintained in DMEM medium supplemented with 10% fetal bovine serum and 1× mixture of penicillin/streptomycin/fungizone/glutamine mixture (Cambrex, MD) geneticin as selecting agent in 75 cm^2 cell culture flasks.
as §1
G-sec Inhib XIX, SKF 96365, 2-APB, felodipine, FPL, clotrimazole, tetrandrine, R24571, and econazole are available, as Calbiochem products from EMD Biosciences, Inc., La Jolla, Calif.; nilvadipine, nitrendipine and amlodipine (amlodipine besylate) are available, e.g., from Fujisawa, Osaka, Japan; thapsigargin, BAPTA-AM and TA9 (Tyrphostin A9) are available, e.g., as a Sigma product from Sigma-Aldrich Corp., St. Louis, Mo.; and felodipine, diltiazem, S(−)Bay K8644, R(+)Bay K8644, MRS 1845, SR 33805, loperamide, and isradipine are available from Tocris Cookson Inc., Ellisville, Mo.

Structure (SMILES) | concentration of Aβ1-40 compared to control [1] | concentration of Aβ1-40 or Aβ1-42 compared to control [1] | other results
CC(C)Cc1ccc(C(C)C(=O)O)cc1 (centres unmarked) [ibuprofen] | – | – | β-amyloid deposits, astrocytosis, and dystrophic neurites (Tg APPsw mice): reduction
CC1=C(C(=O)OC(C)(C)C)C(c2ccc(Br)cc2F)C(C(=O)OC(C)(C)C)=C(C)N1 [Example 3-34, Di-tert-butyl 4-(4-bromo-2-fluorophenyl)-1,4-dihydro-2,6-dimethylpyridine-3,5-dicarboxylate] | decreased | – | –
CCOC(=O)C1=C(C)NC(C)=C(C(=O)OCC)C1c1ccccc1[N+](=O)[O-] [Example 2-29, Diethyl 1,4-dihydro-2,6-dimethyl-4-(2-nitrophenyl)pyridine-3,5-dicarboxylate] | – | decreased | melting point: 120 to 121 °C
COCCOC(=O)C1=C(C)NC(C)=C(C(=O)OCCOC)C1c1cccc(Br)c1 [Example 3-37] | decreased | – | –
CCOC(=O)C1=C(C)NC(C)=C(C(=O)OCC)C1c1ccc(Br)cc1F [Example 3-33] | decreased | – | –
COCCOC(=O)C1=C(C)NC(C)=C(C(=O)OCCOC)C1c1ccc(Br)cc1 [Example 3-38, Bis(2-methoxyethyl) 4-(4-bromophenyl)-1,4-dihydro-2,6-dimethylpyridine-3,5-dicarboxylate] | decreased | – | –
CCOC(=O)C1=C(C)NC(C)=C(C(=O)OCC)C1c1ccccc1F [Example 2-27, Diethyl 4-(2-fluorophenyl)-1,4-dihydro-2,6-dimethylpyridine-3,5-dicarboxylate] | – | decreased | –
CCOC(=O)C1=C(C)NC(C)=C(C(=O)OCC)C1c1cccc(F)c1F [Example 3-22] | decreased | – | –
CC1=C(C(=O)OC(C)(C)C)C(c2cc(Br)ccc2F)C(C(=O)OC(C)(C)C)=C(C)N1 [Example 3-42] | decreased | – | –
CC1=C(C(=O)OC(C)(C)C)C(c2ccccc2Br)C(C(=O)OC(C)(C)C)=C(C)N1 [Example 2-32, Di-tert-butyl 4-(2-bromophenyl)-1,4-dihydro-2,6-dimethylpyridine-3,5-dicarboxylate] | – | decreased | –
CCOC(=O)C1=C(C)NC(C)=C(C(=O)OCC)C1c1cc(Br)ccc1F [Example 3-41, Diethyl 4-(5-bromo-2-fluorophenyl)-1,4-dihydro-2,6-dimethylpyridine-3,5-dicarboxylate] | decreased | – | –
CC1=C(C(=O)OC(C)(C)C)C(c2ccccc2[N+](=O)[O-])C(C(=O)OC(C)(C)C)=C(C)N1 [Example 2-33, Di-tert-butyl 1,4-dihydro-2,6-dimethyl-4-(2-nitrophenyl)pyridine-3,5-dicarboxylate] | – | decreased | –
CC1=C(C(=O)OC(C)(C)C)C(c2cccc(F)c2F)C(C(=O)OC(C)(C)C)=C(C)N1 [Example 3-23] | decreased | – | –
COc1ccc(CCCOC(Cn2ccnc2)c2ccc(OC)cc2)cc1.Cl (stereo not drawn) [SKF 96365, 1-[beta-[3-(4-methoxyphenyl)propoxy]-4-methoxyphenethyl]-1H-imidazole hydrochloride] | – | – | concentration of Aβ1-40 compared to controls ([2]; 15 μM, 24 hours (FIG. 1B)): significantly decreased; concentration of Aβ1-40 compared to controls ([2]; 30 μM (FIG. 2)): significantly decreased; concentration of Aβ1-42 compared to controls ([2]; 30 μM (FIG. 2)): significantly decreased; concentration of total β-amyloid compared to controls ([2]; 30 μM (FIG. 2)): significantly decreased; concentration of Aβ1-40 compared to controls ([2]; 30 μM, 24 hours (FIG. 1B)): significantly decreased
CC1=C(C(=O)OC(C)(C)C)C(c2ccccc2F)C(C(=O)OC(C)(C)C)=C(C)N1 [Example 2-28, Di-tert-butyl 4-(2-fluorophenyl)-1,4-dihydro-2,6-dimethylpyridine-3,5-dicarboxylate] | – | decreased | melting point: 201 to 202 °C
COCCOC(=O)C1=C(C)NC(C)=C(C(=O)OCCOC)C1c1ccccc1Cl [Example 2-19] | – | decreased | –
CCOC(=O)C1=C(C)NC(C)=C(C(=O)OCC)C1c1ccccc1Br [Example 2-23, Diethyl 4-(2-bromophenyl)-1,4-dihydro-2,6-dimethylpyridine-3,5-dicarboxylate] | – | decreased | –
